Data reported in patent US8361779B2, “Buffer compounds” (Sachem, Inc., priority 2010, dated 2013).
“Also recorded” adds a separate entry of the source. Counter-ions that a name gives are not always drawn. Like-named read-outs stand apart in the source and are kept apart here.

Key:
[1] = Est. pKa of Table 1 compounds (approximate measurements of pKa-values); type: physicochemical; conditions: for pKa: aqueous 80 mM KCl solution (pH titration with 100 mM KOH)
Protocol: This method is used when nonreactive impurities are >5% (HPLC), when reactive impurities are >1% (HPLC), when insufficient buffer is available or when noticeably poor curve fitting is seen in the above method. The experimental method is nearly the same as the above method, but the experimental volume-pH data are processed differently. Usually, only one or two titrations are carried out. The pKa is estimated to be the same as the pH of the titration curve at the half-equivalence point. The estimated pKa values can be as good at ±0.1 or as poor as ±0.5 depending on the nature and amounts of impurities.

[2] = pKa values quoted for buffers (buffer combinations table); type: physicochemical; conditions: for pKa: aqueous solution, read-out: pKa of buffer in cationic/anionic buffer combinations; for pKa / pKa of buffer in cationic/anionic buffer combinations: 25° C., ionic-strength 0.10 unless otherwise specified (b6)
Text: pH is a measurement of solvated hydrogen-ion activity, which is directly related to hydrogen ion concentration: −log [H^+]. […] Activity is a defined thermodynamic term and is related to concentration. At low concentration and low ionic-strength, activity approximately equals concentration. […] Such pKa values are more applicable to practical conditions than are thermodynamic pKa values where μ≈0. […] Initially, approximately equal concentrations are chosen.

[3] = Precision measurements of pKa-values by pH titration; type: physicochemical; conditions: titrated with 100 mM KOH, six titrations, 25° C., ionic-strength 0.10 unless otherwise specified (b6); for Meas. pKa: 10 mM buffer, 80 mM KCl
Protocol: High purity analytical quality reagents are used in these studies: potassium chloride, potassium hydroxide, primary standard potassium acid phthalate (KAP, Baker), 18 meg-ohm deionized doubly-distilled water (CO2-free). […] They are dried in a vacuum oven at 50° C. for 18-24 hours and stored in a glass desiccator over P2O5. The only remaining impurities are inert water/solvent and traces of residual HCl or HBr. Most buffers are stable in atmospheric air; a few are somewhat hygroscopic. During the weighing of the buffer compounds, care is taken to prevent or minimize absorption of atmospheric moisture. Solutions containing 10 mM buffer and 80 mM KCl are carefully prepared using degassed, deionized water and standardized volumetric flasks. Six independent pH titrations are carried out for each buffer compound using 100 mM carbonate-free KOH that is carefully standardized against KAP.
The titrator is controlled and data collected by LabX Titration software, version 2.5. The titration cell is thermostatically controlled at 10.00±0.05° C., 25.00±0.05° C. or 40.00±±0.05° C. Temperatures are measured using a NIST-traceable mercury thermometer. Titrations are adjusted so that the endpoint is close to 5 mL delivery point of the burette. Incremental titrations are carried out with increment volume of 100 μl and with continuous stirring; the system is allowed to settle after each incremental addition (10-30 sec) before a reading is recorded. Accurate, NIST-traceable buffers (±0.001 pH unit) with accurately known values at 2, 4, 7, 10, 12 in the temperature range 10-40° C. are used (Oakton Instruments, Vernon Hills, Ill.). The electrode is calibrated at pH=2, 4, 10 and 12. The pH=7 buffer is independently measured. If the pH=7 measurement is accurate to ±0.002 pH unit, a titration is carried out; if not, the calibration is repeated. A pH calibration is carried out before each titration experiment. […]

[4] = system: Escherichia coli, Pseudomonas fluorescens, Pichia pastoris, Saccharyomyces cerevisiae; assay: Microbial growth-inhibition assays, all four organisms; type: cell-based; conditions: for comparative growth behaviour between buffers: all four organisms, pH 7.0; for order of growth inhibition at higher concentrations: standard buffers
Protocol: (§1) Microbial growth inhibition assays are carried out 96-well plates with well volume of 400 μL. In the present inventors' hands, data obtained in this manner are almost equivalent to that obtained in traditional shake flasks while data collection is more accurate and convenient. Two calibrated plate readers are used so that two plates, corresponding to a single organism, could be read at the same time. Each plate contains 80 cells for one organism and four buffers each at five concentrations (25, 50, 100, 225, 500 mM) with each buffer-concentration combination (20) being replicated four-fold. Each of these cells contained 50 μL of a fresh, calibrated cell culture plus 250 μL fresh sterile cell culture. In addition, each plate contained eight identical cells with 250 μL sterile, buffer-free growth medium plus 50 μL fresh cell culture and eight cells with 300 μL sterile growth medium and no organism. Microbial growth is measured by light-scattering/absorbance measurements at 600 nm every 15-60 minutes for the prescribed period. Every 15 minutes, each plate undergoes agitation/vibration which resuspends the organisms and promotes aeration; this process is repeated just prior to each absorbance reading. For each medium, six bottles of sterile media are prepared, one for each buffer concentration (0, 30, 60, 120, 270, 600 mM) so that when each is diluted in the plate, the desired concentrations will be obtained. The media components (see below), added buffer and water are mixed, and the pH is adjusted to the proper value. Each bottle of medium is heat sterilized (121° C., 15 psig, 20 minutes), cooled and, if necessary, the pH is readjusted to the proper value in a sterile fashion with 37% HCl or 50% NaOH.
Based upon prior experience with these organisms, a series of microbial growth measurements are carried out to determine optimal growth conditions. Four different media compositions unique to each organism each at four pH values (6.0, 6.5, 7.0, 7.5) are measured at three temperatures (23° C., 30° C., 37° C.). Fortunately, combinations of near optimal growth conditions have been found so that the same pH of 7.0±0.1 could be used for all four organisms that are listed below:
Compositions of growth media are listed below for one liter of medium. pH is adjusted to 7.0±0.1 both before and after heat sterilization. Similar growth results are obtained when the added cationic buffer is added before heat-sterilization and after heat-sterilization via sterile filtration. Several useful growth media containing methanol are known for Pichia, but ME broth is equally good under the current conditions, and then evaporation of methanol is not a problem. Amounts below are given as g/L in sterilized growth medium.
The bacterial and yeast strains are grown up and counted several times in each respective growth medium obtain fresh, stable, reproducible cultures of known density as a function of time. Microbial counting is carried out in the usual fashion by using serial dilutions followed by plate counting. Each culture is diluted and plated three times, and the values are averaged. When a culture reaches the proper microbial density (cfu/mL), two 96-well plates are quickly loaded as described above, and plate reading is started using two matched plate readers.

[5] = system: Pseudomonas fluorescens ATCC 19020; assay: Microbial growth-inhibition assay, P. fluorescens; type: cell-based; conditions: 30° C., PM broth
Protocol: as §1, with “For each medium, six bottles of sterile media are prepared, one for each buffer concentration (0, 30, 60, 120, 270, 600 mM) so that when each is diluted in the plate, the desired concentrations will be obtained. The media components (see below), added buffer and water are mixed, and the pH is adjusted to the proper value.” left out
Based upon prior experience with these organisms, a series of microbial growth measurements are carried out to determine optimal growth conditions. Four different media compositions unique to each organism each at four pH values (6.0, 6.5, 7.0, 7.5) are measured at three temperatures (23° C., 30° C., 37° C.). […]
The bacterial and yeast strains are grown up and counted several times in each respective growth medium obtain fresh, stable, reproducible cultures of known density as a function of time. […] When a culture reaches the proper microbial density (cfu/mL), two 96-well plates are quickly loaded as described above, and plate reading is started using two matched plate readers.

[6] = Change in pKa of amine caused by proximal quaternary ammonium group; type: physicochemical
Text: The presence of a quaternary ammonium (quat) group in a molecule that also contains an amine group will reduce the pKa of the amine as measured in aqueous media and polar nonaqueous media. […] All three effects as described will generally lead to some reduction of observed pKa in the molecule of interest. […] The amount of reduction in pKa depends on (1) the number of quat groups, (2) the distance of the quat group(s) from the amine and (3) the rigidity of the molecule that holds the quat group and amine in more fixed position with regard to each other.

[7] = single value, read-out: Est. pKa
[8] = HEPES, buffer combinations table
[9] = relative to trimethylamine, water at 25° C., μ=0.1, approximate numbers

Compound: 1,1,5,9-tetramethyl-2-hydroxy-5,9-bis(2-sulfoethyl)-1,5,9-triazanonane di-inner salt [Compound 82]
- Est. pKa, second of two values ([1]; wide-range buffer, higher pKa): ~8.0
- Est. pKa, first of two values ([1]; wide-range buffer, lower pKa): ~6.5

Compound: OB(O)O [Boric Acid]
- pKa [2]: 9

Compound: O=S(=O)(O)CCNC1CCCCC1 [CHES (H+)]
- pKa of buffer in cationic/anionic buffer combinations [2]: 9.4

Compound: C[N+](C)(C)CC(O)CC(=O)[O-] (centres unmarked) [Carnitine HCl]
- pKa ([3]; aqueous solution of 10 mM buffer and 80 mM KCl, read-out: Meas. pKa): 3.83

Compound: CN(C)CC(O)C[N+](C)(C)C.[Cl-] (centres unmarked) [Compound 8]
- pKa quoted in comparison of buffers with similar pKa values [2]: 7.9
- comparative growth behaviour between buffers [4]: is better than TRIS
- comparative growth of Pseudomonas [5]: DEAGA and MEAGA are clearly better than DIMEGA and DEGA

Compound: CCN(CC)CC(O)C[N+](C)(C)C.[Cl-] (centres unmarked) [Compound 10, N-(2-hydroxy-3-trimethylammonium-propyl)diethylamine chloride]
- pKa quoted in comparison of buffers with similar pKa values [2]: 8.5
- comparative growth behaviour between buffers [4]: TAPS (8.4) is better than DEGA
- comparative growth of Pseudomonas [5]: DEAGA and MEAGA are clearly better than DIMEGA and DEGA

Compound: C[N+](C)(C)CC(O)CNC(CO)(CO)CO (centres unmarked) [Compound 19a]
- pKa [1, 7]: ~5.8

Compound: CN(CCO)CC[N+](C)(C)CCO [Compound 20a]
- pKa [1, 7]: ~5.2

Compound: CCN(CC)CC[N+](C)(CC)CC [Compound 28a]
- pKa [1, 7]: ~6.7

Compound: CN(C)CCC[N+](C)(C)C.Cl.[Cl-] [Compound 29a, (3-trimethylammoniumpropyl) dimethylamine chloride hydrochloride]
- Est. pKa ([1]; single value): ~8.1

Compound: CCN(CC)CCC[N+](C)(CC)CC [Compound 30a]
- pKa [1, 7]: ~8.7

Compound: CCN(CC)CCCCCC[N+](C)(CC)CC [Compound 34a]
- pKa [1, 7]: ~10.1

Compound: C[N+](C)(C)CC(O)CN(CCO)CCCS(=O)(=O)[O-] (centres unmarked) [Compound 51, N-(2-hydroxy-3-trimethylammoniumpropyl)-N-(2-hydroxyethyl)homotaurine inner salt]
- Est. pKa ([1]; single value): ~6.4

Compound: CN(C)CCC[N+](C)(C)CCCS(=O)(=O)[O-] [Compound 57, N,N,N′,N′-tetramethyl-N-(3-sulfopropyl)-1,3-propanediamine Inner salt]
- Est. pKa ([1]; single value): ~8.1

Compound: CN(C)CC(O)C[N+](C)(CCCN(C)CCS(=O)(=O)O)CCS(=O)(=O)[O-] (centres unmarked) [Compound 59]
- pKa ([1]; wide-range buffer, higher pKa, read-out: Est. pKa, second of two values): ~8
- pKa ([1]; wide-range buffer, lower pKa, read-out: Est. pKa, first of two values): ~6.5

Compound: CN(C)CCC[N+](C)(C)CCCP(=O)([O-])O [Compound 60, N,N,N′,N′-tetramethyl-N-(3-phosphonopropyl)-1,3-propanediammonium di-Inner salt]
- Est. pKa, second of two values ([1]; wide-range buffer, higher pKa): ~8.2
- Est. pKa, first of two values ([1]; wide-range buffer, lower pKa): ~6.8

Compound: CN(CCCS(=O)(=O)O)CC[N+](C)(C)CCCS(=O)(=O)[O-] [Compound 66, N,N′,N′-trimethyl-N,N′-bis(3-sulfopropyl)ethylenediammonium di-inner salt]
- Est. pKa ([1]; single value): ~5.5

Compound: CCN(C(C)C)C1CC[N+](CC)(CC)CC1 [Compound 74a]
- pKa [1, 7]: ~7.4

Compound: Br.CN(C)C(=NCCC[N+](C)(C)C)N(C)C.[Br-] [Compound 76, 2-(3-trimethylammoniumpropyl)-1,1,3,3-tetramethylguanidine bromide hydrobromide]
- Est. pKa ([1]; single value): ~12.9

Compound: CN1CCN(C)C1=NCC[N+](C)(C)C.Cl.[Cl-] [Compound 77, N(2-(1′,3′-dimethylimidazoline-2′-iminato)ethyl)trimethyl-ammonium chloride hydrochloride]
- Est. pKa ([1]; single value): ~11.1

Compound: C[N+](C)(C)CC(O)CNCCO.Cl.[Cl-] (centres unmarked) [Compound 78a, N-(3-trimethylammonium-2-hydroxypropyl)ethanolamine chloride hydrochloride]
- Est. pKa ([1]; single value): ~7.8

Compound: Br.CCOP(=O)(CCC[N+](C)(C)CCCN(C)C)OCC.[Br-] [Compound 79a, N,N,N′,N′-tetramethyl-N-(3-diethylphosphonopropyl)-1,3-propanediamine diethyl ester bromide•hydrobromide]
- Est. pKa ([1]; single value): ~8.1

Compound: CN(CCC[N+](C)(CCS(=O)(=O)[O-])CC(O)C[N+](C)(C)Cc1ccccc1)CCS(=O)(=O)[O-] (centres unmarked) [Compound 81, 1-benzyl-1,1,5,9-tetramethyl-3-hydroxy-5,9-bis(2-sulfoethyl)-1,5,9-triazanonane, di-inner salt]
- Est. pKa ([1]; single value): ~6.1

Compound: O=S(=O)(O)CCN1CCN(CCO)CC1 [HEPES]
- pKa1 [2, 8]: 3.0
- pKa2 [2, 8]: 7.5

Compound: O=S(=O)(O)CCN1CCOCC1 [MES]
- comparative growth behaviour between buffers [4]: about the same behavior

Compound: O=S(=O)(O)CCCN1CCOCC1 [MOPS]
- Meas. pKa [3]: 7.099

Compound: COCC(=O)O [Methoxyacetic Acid]
- pKa [2]: 3.3

Compound: CN1CCC[N+](C)(C)CC1 [N,N′,N′-Me3-Homopiperazinium^+]
- Change in pKa of Me2N— [6, 9]: ~−3.6 log K units

Compound: CN1CC[N+](C)(C)CC1 [N,N′,N′-Me3-Piperazinium^+]
- Change in pKa of Me2N— [6, 9]: ~−5.5 log K units

Compound: C[N+]12CCN(CC1)CC2 [N-Me-Diazabicyclo[2.2.2]octane^+]
- Change in pKa of Me2N— [6]: ~−6.7 log K units

Compound: O=S(=O)(O)CCCNC(CO)(CO)CO [TAPS]
- Meas. pKa [3]: 8.410
- pKa quoted in comparison of buffers with similar pKa values [2]: 8.4
- comparative growth behaviour between buffers [4]: consistently the best of all eight buffers tested; also recorded: is better than DEGA
- order of growth inhibition at higher concentrations [4]: TRIS>MES>TAPS

Compound: O=S(=O)(O)CCNC(CO)(CO)CO [TES (H+)]
- pKa of buffer in cationic/anionic buffer combinations [2]: 7.5

Compound: NC(CO)(CO)CO [TRIS]
- comparative growth behaviour between buffers [4]: DIMEGA (7.9) is better than TRIS
- order of growth inhibition at higher concentrations [4]: TRIS>MES>TAPS
- comparative growth of Pseudomonas [5]: all 5 cationic buffers being better than TRIS

Compound: CN(C)C[N+](C)(C)C [n = 1* (—CH2—)]
- hydrolytic stability [6]: Limited hydrolytic stability
- Change in pKa of Me2N— [6, 9]: ~−10.5 log K units

Compound: CN(C)CC[N+](C)(C)C [n = 2 (—CH2CH2—)]
- Change in pKa of Me2N— [6, 9]: ~−3.7 log K units

Compound: CN(C)CCC[N+](C)(C)C [n = 3 (—CH2CH2CH2—)]
- Change in pKa of Me2N— [6, 9]: ~−1.7 log K units

Compound: CN(C)CC(O)C[N+](C)(C)C (centres unmarked) [n = 3 (—CH2CH(OH)CH2—)]
- Change in pKa of Me2N— [6, 9]: ~−1.9 log K units

Compound: CN(C)CC=CC[N+](C)(C)C [n = 4 (trans —CH2CH═CHCH2—)]
- Change in pKa of Me2N— [6, 9]: ~−1.3 log K units

Compound: CN(C)CCCC[N+](C)(C)C [n = 4 (—CH2(CH2)2CH2—)]
- Change in pKa of Me2N— [6, 9]: ~−0.9 log K units

Compound: CN(C)CC(O)C(O)C[N+](C)(C)C (centres unmarked) [n = 4 (—CH2CH(OH)CH(OH)CH2—)]
- Change in pKa of Me2N— [6, 9]: ~−1.1 log K units

Compound: CN(C)CCCCC[N+](C)(C)C [n = 5 (—CH2(CH2)3CH2—)]
- Change in pKa of Me2N— [6, 9]: ~−0.5 log K units

Compound: CN(C)CCCCCC[N+](C)(C)C [n = 6 (—CH2(CH2)4CH2—)]
- Change in pKa of Me2N— [6, 9]: ~−0.3 log K units
